For 31 compounds, melting point results are on record in patent US7163952B2, “Azole compound and medicinal use thereof” (Japan Tobacco Inc., priority 2001, dated 2007).

The structures appear in SMILES notation.

By melting point is commonly meant the temperature, or range, at which the solid turns liquid. In the case of `O=C(O)c1ccc(CNc2nc(-c3cc(Cl)ccc3OCc3ccccc3)cs2)cc1` [Example 162, 4-((4-(2-benzyloxy-5-chlorophenyl)-2-thiazolylamino)methyl)benzoic acid], the melting point was in the range of 210 to 211 °C.
Consider `CN(Cc1ccc(C(=O)O)cc1)c1nc(-c2cc(Cl)ccc2OCc2ccccc2)cs1` [Example 163, 4-((N-(4-(2-benzyloxy-5-chlorophenyl)-2-thiazolyl)-N-methylamino)methyl)benzoic acid], for which the melting point lay within 169 to 171 °C.
With `O=C(O)c1ccc(CN(CCC2CCCCC2)c2nc(-c3cc(Cl)ccc3OCc3ccccc3)cs2)cc1` [Example 164, 4-((N-(4-(2-benzyloxy-5-chlorophenyl)-2-thiazolyl)-N-(2-cyclohexylethyl)amino)methyl)benzoic acid] the figure was 158 to 160 °C; with `O=C(O)c1ccc(CN(CCC2CCCCC2)c2nc(-c3cc(Cl)ccc3OCc3ccc(C(F)(F)F)cc3)cs2)cc1` [Example 165, 4-((N-(4-(5-chloro-2-(4-trifluoromethylbenzyloxy)phenyl)-2-thiazolyl)-N-(2-cyclohexylethyl)amino)methyl)benzoic acid], 171 to 172 °C; with `COc1ccc(OCc2ccc(C(F)(F)F)cc2)c(-c2csc(N(CCC3CCCCC3)Cc3ccc(C(=O)O)cc3)n2)c1` [Example 166, 4-((N-(2-cyclohexylethyl)-N-(4-(5-methoxy-2-(4-trifluoromethylbenzyloxy)phenyl)-2-thiazolyl)amino)methyl)benzoic acid], 183 to 184 °C.
With `O=C(O)c1ccc(N(Cc2ccc(Cl)c(Cl)c2)c2nc(-c3cc(Cl)ccc3OCc3ccccc3)cs2)cc1` [Example 167, 4-(N-(4-(2-benzyloxy-5-chlorophenyl)-2-thiazolyl)-N-(3,4-dichlorobenzyl)amino)benzoic acid] the figure was 196 to 198 °C; with `CC(C)CCN(c1ccc(C(=O)O)cc1)c1nc(-c2cc(Cl)ccc2OCc2ccccc2)cs1` [Example 168, 4-(N-(4-(2-benzyloxy-5-chlorophenyl)-2-thiazolyl)-N-(3-methylbutyl)amino)benzoic acid], 143 to 149 °C.
As for `COc1ccc(OCc2ccccc2)c(-c2csc(N(CCC3CCCCC3)c3ccc(C(=O)O)cc3)n2)c1` [Example 169, 4-(N-(4-(2-benzyloxy-5-methoxyphenyl)-2-thiazolyl)-N-(2-cyclohexylethyl)amino)benzoic acid], the figure is 132 to 137 °C; as for `COc1ccc(OCc2ccc(C(F)(F)F)cc2)c(-c2csc(N(CCC3CCCCC3)c3ccc(C(=O)O)cc3)n2)c1` [Example 170, 4-(N-(2-cyclohexylethyl)-N-(4-(5-methoxy-2-(4-trifluoromethylbenzyloxy)phenyl)-2-thiazolyl)amino)benzoic acid], 104 to 107 °C; as for `COc1ccc(OCc2ccc(C(F)(F)F)cc2)c(-c2csc(Nc3ccc(C(=O)O)cc3OCCC3CCCCC3)n2)c1` [Example 171, 3-(2-cyclohexylethoxy)-4-(4-(5-methoxy-2-(4-trifluoromethylbenzyloxy)phenyl)-2-thiazolylamino)benzoic acid], 111 to 114 °C.
Turning to `O=C(O)c1cccc(N(CCC2CCCCC2)c2nc(-c3cc(Cl)ccc3OCc3ccccc3)cs2)c1` [Example 172, 3-(N-(4-(2-benzyloxy-5-chlorophenyl)-2-thiazolyl)-N-(2-cyclohexylethyl)amino)benzoic acid], the melting point lay within 170 to 171 °C.
As for `CC(C)c1ccc(COc2ccc(Cl)cc2-c2csc(Nc3ccc(C(=O)O)cc3)n2)cc1` [Example 173, 4-(4-(5-chloro-2-(4-isopropylbenzyloxy)phenyl)-2-thiazolylamino)benzoic acid], the figure is 215 to 218 °C.
As for `O=C(O)c1ccc(N(CCC2CCCCC2)c2nc(-c3cc(F)ccc3OCc3ccccc3)cs2)cc1` [Example 174, 4-(N-(4-(2-benzyloxy-5-fluorophenyl)-2-thiazolyl)-N-(2-cyclohexylethyl)amino)benzoic acid], the figure is 125 to 130 °C; as for `Cc1ccc(OCc2ccccc2)c(-c2csc(N(CCC3CCCCC3)c3ccc(C(=O)O)cc3)n2)c1` [Example 175, 4-(N-(4-(2-benzyloxy-5-methylphenyl)-2-thiazolyl)-N-(2-cyclohexylethyl)amino)benzoic acid], 148 to 150 °C.
As for `CC(C)c1ccc(COc2ccc(Cl)cc2-c2csc(N(CCC3CCCCC3)c3ccc(C(=O)O)cc3)n2)cc1` [Example 176, 4-(N-(4-(5-chloro-2-(4-isopropylbenzyloxy)phenyl)-2-thiazolyl)-N-(2-cyclohexylethyl)amino)benzoic acid], the figure is 190 to 192 °C.
Consider `O=C(O)c1ccc(N(CCC2CCCCC2)c2nc(-c3cc(Cl)ccc3OCc3ccc(C(F)(F)F)cc3)cs2)cc1` [Example 177, 4-(N-(4-(5-chloro-2-(4-trifluoromethylbenzyloxy)phenyl)-2-thiazolyl)-N-(2-cyclohexylethyl)amino)benzoic acid], for which the melting point lay in the range of 170 to 175 °C.
With `O=C(O)c1ccc(N(CCC2CCCCC2)c2nc(-c3cc(Cl)ccc3OCc3ccc(Cl)c(Cl)c3)cs2)cc1` [Example 178, 4-(N-(4-(5-chloro-2-(3,4-dichlorobenzyloxy)phenyl)-2-thiazolyl)-N-(2-cyclohexylethyl)amino)benzoic acid] the figure was 195 to 198 °C; with `O=C(O)c1ccc(Nc2nc(-c3cc(Cl)ccc3OCc3ccc(C(F)(F)F)cc3)cs2)c(OCCC2CCCCC2)c1` [Example 179, 4-(4-(5-chloro-2-(4-trifluoromethylbenzyloxy)phenyl)-2-thiazolylamino)-3-(2-cyclohexylethoxy)benzoic acid], 134 to 140 °C; with `COc1ccc(OCc2ccc(C(F)(F)F)cc2)c(-c2csc(Nc3ccc(C(=O)O)cc3OCc3ccccc3)n2)c1` [Example 180, 3-benzyloxy-4-(4-(5-methoxy-2-(4-trifluoromethylbenzyloxy)phenyl)-2-thiazolylamino)benzoic acid], 227 to 230 °C.
As for `O=C(O)c1cccc(N(CC2CCCCC2)c2nc(-c3cc(Cl)ccc3OCc3ccccc3)cs2)c1` [Example 181, 3-(N-(4-(2-benzyloxy-5-chlorophenyl)-2-thiazolyl)-N-cyclohexylmethylamino)benzoic acid], the figure is 98 to 100 °C; as for `CCCCN(c1ccc(C(=O)O)cc1)c1nc(-c2cc(Cl)ccc2OCc2ccc(C(F)(F)F)cc2)cs1` [Example 182, 4-(N-butyl-N-(4-(5-chloro-2-(4-trifluoromethylbenzyloxy)phenyl)-2-thiazolyl)amino)benzoic acid], 216 to 218 °C; as for `CC(C)N(c1ccc(C(=O)O)cc1)c1nc(-c2nc3ccc(OCc4ccc(Cl)c(Cl)c4)cc3o2)cs1` [Example 183, 4-(N-(4-(6-(3,4-dichlorobenzyloxy)-2-benzooxazolyl)-2-thiazolyl)-N-isopropylamino)benzoic acid], 230 °C.
As for `O=C(O)c1ccc(N(CCC2CCCCC2)c2nc(-c3nc4ccc(OCc5ccc(Cl)c(Cl)c5)cc4o3)cs2)cc1` [Example 184, 4-(N-(2-cyclohexylethyl)-N-(4-(6-(3,4-dichlorobenzyloxy)-2-benzooxazolyl)-2-thiazolyl)amino)benzoic acid], the figure is 195 to 197 °C; as for `O=C(O)c1ccc(N(CC2CCCCC2)c2nc(-c3nc4ccc(OCc5ccc(Cl)c(Cl)c5)cc4o3)cs2)cc1` [Example 187, 4-(N-cyclohexylmethyl-N-(4-(6-(3,4-dichlorobenzyloxy)-2-benzooxazolyl)-2-thiazolyl)amino)benzoic acid], 182 to 189 °C; as for `CC(C)(C)c1ccc(COc2ccc3nc(-c4csc(N(CC5CCCCC5)c5ccc(C(=O)O)cc5)n4)oc3c2)cc1` [Example 188, 4-(N-(4-(6-(4-tert-butylbenzyloxy)-2-benzooxazolyl)-2-thiazolyl)-N-cyclohexylmethylamino)benzoic acid], 230 °C (dec.).
For `O=C(O)c1ccc(N(CC2CCCCC2)c2nc(-c3nc4ccc(OCc5ccc(C(F)(F)F)cc5C(F)(F)F)cc4o3)cs2)cc1` [Example 189, 4-(N-(4-(6-(2,4-bis(trifluoromethyl)benzyloxy)-2-benzooxazolyl)-2-thiazolyl)-N-cyclohexylmethylamino)benzoic acid], the melting point lay within 213 to 214 °C.
With `O=C(O)c1ccc(N(CC2CCCCC2)c2nc(-c3nc4ccc(OCc5ccc(F)c(F)c5)cc4o3)cs2)cc1` [Example 190, 4-(N-cyclohexylmethyl-N-(4-(6-(3,4-difluorobenzyloxy)-2-benzooxazolyl)-2-thiazolyl)amino)benzoic acid] the figure was 228 to 230 °C.
Compound `COc1cc(COc2ccc3nc(-c4csc(N(CC5CCCCC5)c5ccc(C(=O)O)cc5)n4)oc3c2)cc(OC)c1` [Example 191, 4-(N-cyclohexylmethyl-N-(4-(6-(3,5-dimethoxybenzyloxy)-2-benzooxazolyl)-2-thiazolyl)amino)benzoic acid] came in with a melting point of 160 to 162 °C.
As for `CN(Cc1ccc([C@H]2CC[C@@H](O)CC2)cc1)c1ccc(-c2csc(N(C)Cc3ccc(C(=O)O)cc3)n2)cc1` [Example 194, cis-4-((N-(4-(4-(N-(4-(4-hydroxycyclohexyl)benzyl)-N-methylamino)phenyl)-2-thiazolyl)-N-methylamino)methyl)benzoic acid], the figure is 180 to 181 °C; as for `CN(Cc1ccc(C2CCCCC2)cc1)c1ccc(-c2csc(N(C)Cc3cccc(C(=O)O)c3)n2)cc1` [Example 204, 3-((N-(4-(4-(N-(4-cyclohexylbenzyl)-N-methylamino)phenyl)-2-thiazolyl)-N-methylamino)methyl)benzoic acid], 183 °C (dec.); as for `CN(Cc1ccc(C2CCCC(=O)C2)cc1)c1ccc(-c2csc(N(C)Cc3ccc(C(=O)O)cc3)n2)cc1` (stereo not shown) [Example 207, 4-((N-methyl-N-(4-(4-(N-methyl-N-(4-(3-oxocyclohexyl)benzyl)amino)phenyl)-2-thiazolyl)amino)methyl)benzoic acid], 189 to 191 °C.
